What all share (experiment): Bliss interaction score (quartile over a dose matrix) (fitness difference); higher = more antagonism (negative = synergy)
For one test, the system named is S. pneumoniae D39V. Put shortly:
(§1)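 Fitness was derived from optical density at entry into stationary phase, divided by the robust mean of the no-drug wells on the same plate. That reading was taken as OD595, and the ratio was capped at 1. Single-drug fitness was inferred from the combination data. The Bliss score, observed fitness minus the expected product of single-drug fitness, was summarised as quartiles over technical, biological and donor/recipient replicates.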

A further test concerns B. subtilis 168. In outline:
as §1

The next test relates to S. aureus DSM 20231. Put shortly: as §1
For a further test, the system named is S. aureus Newman. In outline:
as §1
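Also: first quartile when negative (synergy) and third quartile when positive (antagonism).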

For `CC(=O)O[C@H]1C[C@@]2(C)[C@@H](C[C@@H](O)[C@H]3[C@@]4(C)CC[C@@H](O)[C@@H](C)[C@@H]4CC[C@@]32C)/C1=C(\CCC=C(C)C)C(=O)O` [Fusidic acid] + CN[C@H](CC(C)C)C(=O)N[C@H]1C(=O)N[C@@H](CC(N)=O)C(=O)N[C@H]2C(=O)N[C@H]3C(=O)N[C@H](C(=O)N[C@H](C(=O)O)c4cc(O)cc(O)c4-c4cc3ccc4O)[C@H](O)c3ccc(c(Cl)c3)Oc3cc2cc(c3O[C@@H]2O[C@H](CO)[C@@H](O)[C@H](O)[C@H]2O[C@H]2C[C@](C)(N)[C@H](O)[C@H](C)O2)Oc2ccc(cc2Cl)[C@H]1O [Vancomycin], the Bliss interaction score was 0.0729 in the test on S. pneumoniae D39V, -0.0397 with B. subtilis 168, 0.0205 in the test on S. aureus DSM 20231 and -0.0305 in the test on S. aureus Newman.
For `CC(=O)O[C@H]1C[C@@]2(C)[C@@H](C[C@@H](O)[C@H]3[C@@]4(C)CC[C@@H](O)[C@@H](C)[C@@H]4CC[C@@]32C)/C1=C(\CCC=C(C)C)C(=O)O` [Fusidic acid] + Cc1ncc([N+](=O)[O-])n1CCO [Metronidazole], the Bliss interaction score in the test on S. pneumoniae D39V was 0.133; in the test on B. subtilis 168, 0.0703; in the test on S. aureus DSM 20231 it was -0.0408; in the test with S. aureus Newman it was -0.0202.
On to `O=C(N[C@H](CO)[C@H](O)c1ccc([N+](=O)[O-])cc1)C(Cl)Cl` [Chloramphenicol] + C[C@H]1c2cccc(O)c2C(=O)C2=C(O)[C@]3(O)C(=O)C(C(N)=O)=C(O)[C@@H](N(C)C)[C@@H]3[C@@H](O)[C@@H]21 [Doxycycline], for which the Bliss interaction score with S. pneumoniae D39V is -0.06; with B. subtilis 168, -0.0915; in the test with S. aureus DSM 20231 it was 0.0395; in the test on S. aureus Newman it was 0.0197.
With `CC(=O)OC[C@H]1O[C@@H]([S-])[C@H](OC(C)=O)[C@@H](OC(C)=O)[C@@H]1OC(C)=O.CCP(CC)CC.[Au+]` [Auranofin] + O=C1CN(/N=C/c2ccc([N+](=O)[O-])o2)C(=O)N1 [Nitrofurantoin], the Bliss interaction score with S. pneumoniae D39V was -0.421; in the test with B. subtilis 168 it was -0.066; with S. aureus DSM 20231, -0.0217; with S. aureus Newman, -0.132.
With `CC(=O)O[C@H]1C[C@@]2(C)[C@@H](C[C@@H](O)[C@H]3[C@@]4(C)CC[C@@H](O)[C@@H](C)[C@@H]4CC[C@@]32C)/C1=C(\CCC=C(C)C)C(=O)O` [Fusidic acid] + Cn1nnc(-c2ccc(-c3ccc(N4C[C@H](CO)OC4=O)cc3F)cn2)n1 [Tedizolid], the Bliss interaction score was -0.0933 in the test with S. pneumoniae D39V, -0.131 with B. subtilis 168, -0.0507 with S. aureus DSM 20231 and -0.048 in the test with S. aureus Newman.
Regarding `CC(=O)O[C@H]1C[C@@]2(C)[C@@H](C[C@@H](O)[C@H]3[C@@]4(C)CC[C@@H](O)[C@@H](C)[C@@H]4CC[C@@]32C)/C1=C(\CCC=C(C)C)C(=O)O` [Fusidic acid] + CC1=C\[C@@H](O)CC(=O)Cc2nc(co2)C(=O)N2CCC=C2C(=O)O[C@H](C(C)C)[C@H](C)/C=C/C(=O)NC\C=C\1 [Virginiamycin M1], the Bliss interaction score is 0.0996 with S. pneumoniae D39V, 0.0743 in the test on B. subtilis 168, 0.0345 in the test on S. aureus DSM 20231 and -0.044 in the test on S. aureus Newman.
`CCC[C@@H]1C[C@@H](C(=O)N[C@@H]([C@H]2O[C@H](SC)[C@H](O)[C@@H](O)[C@H]2O)[C@@H](C)O)N(C)C1` [Lincomycin] + CN[C@H](CC(C)C)C(=O)N[C@H]1C(=O)N[C@@H](CC(N)=O)C(=O)N[C@H]2C(=O)N[C@H]3C(=O)N[C@H](C(=O)N[C@H](C(=O)O)c4cc(O)cc(O)c4-c4cc3ccc4O)[C@H](O[C@H]3C[C@](C)(N)[C@@H](O)[C@H](C)O3)c3ccc(c(Cl)c3)Oc3cc2cc(c3O[C@@H]2O[C@H](CO)[C@@H](O)[C@H](O)[C@H]2O[C@H]2C[C@](C)(NCc3ccc(-c4ccc(Cl)cc4)cc3)[C@@H](O)[C@H](C)O2)Oc2ccc(cc2Cl)[C@H]1O [Oritavancin]: the Bliss interaction score was 0.0612 in the test on S. pneumoniae D39V, 0.0264 with B. subtilis 168, -0.0375 in the test with S. aureus DSM 20231 and -0.0583 in the test on S. aureus Newman.
`C/C(=C\C(=O)OCCCCCCCCC(=O)O)C[C@@H]1OC[C@H](C[C@@H]2O[C@H]2[C@@H](C)[C@H](C)O)[C@@H](O)[C@H]1O` [Pseudomonic acid] + COc1cc(Cc2cnc(N)nc2N)cc(OC)c1OC [Trimethoprim]: the Bliss interaction score is -0.143 in the test with S. pneumoniae D39V, 0.0595 in the test with B. subtilis 168, 0.0182 in the test on S. aureus DSM 20231 and 0.0264 in the test on S. aureus Newman.
With `CC[C@H]1OC(=O)[C@H](C)[C@@H](O[C@H]2C[C@@](C)(OC)[C@@H](O)[C@H](C)O2)[C@H](C)[C@@H](O[C@@H]2O[C@H](C)C[C@H](N(C)C)[C@H]2O)[C@](C)(OC)C[C@@H](C)C(=O)[C@H](C)[C@@H](O)[C@]1(C)O` [Clarithromycin] + CC1(C)S[C@@H]2[C@H](NC(=O)Cc3ccccc3)C(=O)N2[C@H]1C(=O)O [PenicillinG], the Bliss interaction score in the test on S. pneumoniae D39V is -0.0413; in the test on B. subtilis 168, 0.0431; with S. aureus DSM 20231 it was -0.0458; in the test with S. aureus Newman it was -0.0938.
In the case of `CC(=O)O[C@H]1C[C@@]2(C)[C@@H](C[C@@H](O)[C@H]3[C@@]4(C)CC[C@@H](O)[C@@H](C)[C@@H]4CC[C@@]32C)/C1=C(\CCC=C(C)C)C(=O)O` [Fusidic acid] + CCN(CC)CCOC(=O)c1ccc(N)cc1 [Procaine], the Bliss interaction score in the test on S. pneumoniae D39V was 0.0981; in the test with B. subtilis 168 it was -0.0381; with S. aureus DSM 20231, -0.0218; in the test on S. aureus Newman, -0.0177.
Turning to `CC(=O)O[C@H]1C[C@@]2(C)[C@@H](C[C@@H](O)[C@H]3[C@@]4(C)CC[C@@H](O)[C@@H](C)[C@@H]4CC[C@@]32C)/C1=C(\CCC=C(C)C)C(=O)O` [Fusidic acid] + CN[C@@H]1[C@H](O[C@H]2[C@H](O[C@H]3[C@H](O)[C@@H](O)[C@H](N=C(N)N)[C@@H](O)[C@@H]3N=C(N)N)O[C@@H](C)[C@]2(O)C=O)O[C@@H](CO)[C@H](O)[C@H]1O [Streptomycin], the Bliss interaction score with S. pneumoniae D39V is -0.0901; with B. subtilis 168 it was 0.0692; with S. aureus DSM 20231, 0.034; with S. aureus Newman, -0.0834.
Taken in the same sequence, the figures for `CC[C@H]1OC(=O)[C@H](C)[C@@H](O[C@H]2C[C@@](C)(OC)[C@@H](O)[C@H](C)O2)[C@H](C)[C@@H](O[C@@H]2O[C@H](C)C[C@H](N(C)C)[C@H]2O)[C@](C)(OC)C[C@@H](C)C(=O)[C@H](C)[C@@H](O)[C@]1(C)O` [Clarithromycin] + CN[C@H](CC(C)C)C(=O)N[C@H]1C(=O)N[C@@H](CC(N)=O)C(=O)N[C@H]2C(=O)N[C@H]3C(=O)N[C@H](C(=O)N[C@H](C(=O)O)c4cc(O)cc(O)c4-c4cc3ccc4O)[C@H](O[C@H]3C[C@](C)(N)[C@@H](O)[C@H](C)O3)c3ccc(c(Cl)c3)Oc3cc2cc(c3O[C@@H]2O[C@H](CO)[C@@H](O)[C@H](O)[C@H]2O[C@H]2C[C@](C)(NCc3ccc(-c4ccc(Cl)cc4)cc3)[C@@H](O)[C@H](C)O2)Oc2ccc(cc2Cl)[C@H]1O [Oritavancin] were 0.0635, 0.0293, -0.0389 and -0.0471.

For the origin of these results see the supplement of paper PMC10627819.
